Data: patent US9815796B2 (Merck Sharp & Dohme Corp., priority 2013, dated 2017)
Where two headings read alike, the source gives them in different places.

Biological target: Rhesus PDE2A3 (Macaca mulatta, UniProt B3VTJ2)
Test: PDE2 fluorescence polarization (IMAP FP) inhibition assay, rhesus enzyme
Type: biochemical, rhesus macaque
Protocol: The activity of the compounds in accordance with the present invention as PDE2 inhibitors may be readily determined using a fluorescence polarization (FP) methodology (Huang, W., et al., J. Biomol Screen, 2002, 7: 215).
In a typical experiment the PDE2 inhibitory activity of the compounds of the present invention was determined in accordance with the following experimental method. Rhesus PDE2A3 was amplified from rhesus macaque brain cDNA (Biochain Institute, Hayward, Calif.) using primers based on human PDE2A sequence (accession NM_002599.3) where the forward primer containing a Kozak consensus was 5′-[…]-3′ and the reverse primer was 5′-[…]-3′. Amplification with Easy-A High-Fidelity PCR cloning enzyme (Stratagene, La Jolla, Calif.) was 95° C. for 2 minutes followed by thirty three cycles of 95° C. for 40 seconds, 52° C. for 30 seconds, and 72° C. for 2 minutes 48 seconds. Final extension was 72° C. for 7 minutes. The PCR product was TA cloned into pcDNA3.3-TOPO (Invitrogen, Carlsbad, Calif.) according to standard protocol. A consensus sequence was developed from multiple clones and then deposited into GenBank (EU812167). AD293 cells (Stratagene, La Jolla, Calif.) with 70-80% confluency were transiently transfected with rhesus PDE2A3/pcDNA3.3-TOPO using Lipofectamine 2000 according to manufacturer specifications (Invitrogen, Carlsbad, Calif.). Cells were harvested 48 hours post-transfection and lysed by sonication (setting 3, 10×5 sec pulses) in a buffer containing 20 mM HEPES pH 7.4, 1 mM EDTA and Complete Protease Inhibitor Cocktail Tablets (Roche, Indianapolis, Ind.). Lysate was collected by centrifugation at 75,000×g for 20 minutes at 4° C. and supernatant utilized for evaluation of PDE2 activity. The fluorescence polarization assay for cyclic nucleotide phosphodiesterases was performed using an IMAP® FP kit supplied by Molecular Devices, Sunnyvale, Calif. (product # R8139). […] Assays were performed at room temperature in 384-well microtiter plates with an incubation volume of 20.2 μL. Solutions of test compounds were prepared in DMSO and serially diluted with DMSO to yield 8 μL of each of 10 solutions differing by 3-fold in concentration, at 32 serial dilutions per plate. […] 0% of inhibition is determined by using DMSO (1% final concentrations).
A Labcyte Echo 555 (Labcyte, Sunnyvale, Calif.) is used to dispense 200 nL from each well of the titration plate to the 384 well assay plate. Ten microliters of a solution of enzyme (1/2000 final dilution from aliquots; sufficient to produce 20% substrate conversion) was added to the assay plate. Next 10 uL of a separate solution of the substrate FAM-labeled cAMP (50 nM final concentration product # R7506 from Molecular Devices) and the activator cGMP (1 uM final concentration), prepared in the assay buffer (10 mM Tris HCl, pH 7.2, 10 mM MgCl2, 0.05% NaN3 0.01% Tween-20, and 1 mM DTT) was added to the assay plate and shaken to mix. The reaction is allowed to proceed at room temperature for 60 minutes. A binding solution is then made from the kit components, comprised of 80% Solution A, 20% Solution B and binding reagent at a volume of 1/600 the total binding solution. The enzymatic reaction is stopped by addition of 60 μL of the binding solution to each well of the assay plates and the plates are sealed and shaken for 30 seconds. The plate was incubated at room temperature for at least one hour prior to determining the fluorescence polarization (FP). The parallel and perpendicular fluorescence of each well of the plate was measured using a Tecan Genios Pro plate reader (Tecan, Switzerland) or Perkin Elmer EnVision™ plate reader (Waltham, Mass.). Fluorescence polarization (mP) was calculated from the parallel (S) and perpendicular (P) fluorescence of each sample well and the analogous values for the median control well, containing only substrate (So and Po), using the following equation: Polarization (mP)=1000*(S/So−P/Po)/(S/So+P/Po).

[1] = Rhesus PDE2, Lab B, read-out: Rhesus PDE2 Ki (nM) - Lab B
[2] = Rhesus PDE2, Lab A, read-out: Rhesus PDE2 Ki (nM) - Lab A

Rhesus PDE2A3, sequence (B3VTJ2 1-941): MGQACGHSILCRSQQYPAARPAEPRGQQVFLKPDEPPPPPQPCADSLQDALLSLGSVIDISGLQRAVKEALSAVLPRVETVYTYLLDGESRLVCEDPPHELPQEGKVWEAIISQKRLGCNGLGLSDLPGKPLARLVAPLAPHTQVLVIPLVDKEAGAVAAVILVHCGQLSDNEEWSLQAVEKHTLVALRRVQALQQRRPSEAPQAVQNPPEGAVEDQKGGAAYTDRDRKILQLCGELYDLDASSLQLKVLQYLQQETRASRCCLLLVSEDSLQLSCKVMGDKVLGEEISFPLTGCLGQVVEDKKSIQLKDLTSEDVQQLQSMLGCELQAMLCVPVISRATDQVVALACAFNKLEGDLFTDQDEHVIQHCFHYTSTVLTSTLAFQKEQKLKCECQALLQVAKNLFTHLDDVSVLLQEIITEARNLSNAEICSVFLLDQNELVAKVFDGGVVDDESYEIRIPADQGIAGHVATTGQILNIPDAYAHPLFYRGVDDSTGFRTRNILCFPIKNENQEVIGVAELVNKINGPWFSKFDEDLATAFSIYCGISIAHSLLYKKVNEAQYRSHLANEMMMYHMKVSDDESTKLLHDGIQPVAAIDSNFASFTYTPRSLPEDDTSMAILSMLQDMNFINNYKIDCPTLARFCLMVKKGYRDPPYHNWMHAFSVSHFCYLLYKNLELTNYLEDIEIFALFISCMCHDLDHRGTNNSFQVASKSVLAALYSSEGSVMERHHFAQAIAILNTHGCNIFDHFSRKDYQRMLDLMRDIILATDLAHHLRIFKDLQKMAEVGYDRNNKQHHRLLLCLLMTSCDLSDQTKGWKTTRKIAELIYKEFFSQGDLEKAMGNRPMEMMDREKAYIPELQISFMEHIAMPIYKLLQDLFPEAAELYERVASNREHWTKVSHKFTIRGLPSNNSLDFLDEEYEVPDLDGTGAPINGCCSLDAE

SMILES	Ki [1]	Ki [2]
CC(C)(NC(=O)c1cc(=O)[nH]c(-c2ccccc2)n1)c1cccc(Br)c1 [Example 400, N-[1-(3-bromophenyl)-1-methylethyl]-6-oxo-2-phenyl-1,6-dihydropyrimidine-4-carboxamide]	1070 nM	–
COc1cc(C(F)(F)F)ccc1[C@H](C)NC(=O)c1cc(=O)[nH]c(-c2ccccc2)n1 [Example 403, N-{(1S)-1-[2-methoxy-4-(trifluoromethyl)phenyl]ethyl}-6-oxo-2-phenyl-1,6-dihydropyrimidine-4-carboxamide]	1910 nM	–
C[C@@H](NC(=O)c1cc(=O)[nH]c(-c2ccccc2)n1)c1ccccc1 [Example 342, 6-oxo-2-phenyl-N-[(1R)-1-phenylethyl]-1,6-dihydropyrimidine-4-carboxamide]	963 nM	~605 nM
O=C(c1cc(=O)[nH]c(-c2ccccc2)n1)N1CCCCC1c1ccc(C(F)(F)F)cc1 (centres unmarked) [Example 346, 2-phenyl-6-({2-[4-(trifluoromethyl)phenyl]piperidin-1-yl}carbonyl)pyrimidin-4(3H)-one]	–	2350 nM
CC1(C(NC(=O)c2cc(=O)[nH]c(C3CC3)n2)c2ccc(SC(F)(F)F)c(F)c2)CC1 (single isomer, unassigned) [Example 705, (S)- or (R)-2-cyclopropyl-N-((3-fluoro-4-((trifluoromethyl)thio)phenyl)(1-methylcyclopropyl)methyl)-6-oxo-1,6-dihydropyrimidine-4-carboxamide]	1070 nM	–
COc1ccc(C(NC(=O)c2cc(=O)[nH]c(-c3ccccc3)n2)c2ccc(C(F)(F)F)cc2)cc1 (centres unmarked) [Example 381, N-{(4-methoxyphenyl)[4-(trifluoromethyl)phenyl]methyl}-6-oxo-2-phenyl-1,6-dihydropyrimidine-4-carboxamide]	~20400 nM	–
CC(NC(=O)c1cc(=O)[nH]c(-c2ccccc2)n1)c1ccc(F)cc1 (centres unmarked) [Example 343, N-[1-(4-fluorophenyl)ethyl]-6-oxo-2-phenyl-1,6-dihydropyrimidine-4-carboxamide]	682 nM	~601 nM
CC(NC(=O)c1cc(=O)[nH]c(-c2ccccc2)n1)c1ccc2c(c1)OCO2 (centres unmarked) [Example 376, N-[1-(1,3-benzodioxol-5-yl)ethyl]-6-oxo-2-phenyl-1,6-dihydropyrimidine-4-carboxamide]	891 nM	~672 nM
COc1ccc2cc(C(C)NC(=O)c3cc(=O)[nH]c(C)n3)ccc2c1 (single isomer, unassigned) [Example 314, (S)- or (R)-N-[1-(6-methoxynaphthalen-2-yl)ethyl]-2-methyl-6-oxo-1,6-dihydropyrimidine-4-carboxamide]	–	4740 nM
Cc1nc(C(=O)NCc2ccc(C(F)(F)F)cc2Cl)cc(=O)[nH]1 [Example 24, N-[2-chloro-4-(trifluoromethyl)benzyl]-2-methyl-6-oxo-1,6-dihydropyrimidine-4-carboxamide]	–	3630 nM
CC(C)(NC(=O)c1cc(=O)[nH]c(-c2ccccc2)n1)c1ccc(S(F)(F)(F)(F)F)cc1 [Example 679, N-{1-methyl-1-[4-(pentafluoro-λ^6-sulfanyl)phenyl]ethyl}-6-oxo-2-phenyl-1,6-dihydropyrimidine-4-carboxamide]	90 nM	–
C[C@@H](NC(=O)c1cc(=O)[nH]c(-c2ncccn2)n1)c1cccc(C(F)(F)F)c1 [Example 80, 6-oxo-N-{(1R)-1-[3-(trifluoromethyl)phenyl]ethyl}-1,6-dihydro-2,2′-bipyrimidine-4-carboxamide]	–	845 nM
Cc1nc(C(=O)NC(c2ccc(SC(F)(F)F)cc2)C(C)C)cc(=O)[nH]1 (stereo in doubt) [Example 615, 2-methyl-N-[(1S)-2-methyl-1-{4-[(trifluoromethyl)sulfanyl]phenyl}propyl]-6-oxo-1,6-dihydropyrimidine-4-carboxamide]	441 nM	–
CCOC(=O)c1ccc([C@H](C)NC(=O)c2cc(=O)[nH]c(-c3ncccn3)n2)cc1 [Example 431, ethyl 4-[(1S)-1-{[(6-oxo-1,6-dihydro-2,2′-bipyrimidin-4-yl)carbonyl]amino}ethyl]benzoate]	~2890 nM	–
